# From patent US20240425478A1, “CYCLOPENTYLPYRAZOLE CDK2 INHIBITORS” (Genentech, Inc., priority 2021, published 2024)
# Where two headings read alike, the source gives them in different places.
# What was measured:
# [1] = molecular target: T1, Cyclin Dependent Kinase 2/Cyclin E1 (CDK2-cycE1) (Homo sapiens, UniProt P24941); test: CDK2-cycE1 TR-FRET (LANCE) enzyme assay; format: biochemical; details: for FS CDK1/CDK2 / FS CDK4/CDK2: fold selectivity; for increased fold-selectivity CDK1/CDK2 over Comparator C: (+) sign after FS CDK1/CDK2; for increased fold-selectivity CDK4/CDK2 over Comparator C: (+) sign after FS CDK4/CDK2;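 as to improvement in potency against CDK2 (Ki) over Comparator C: fold lower CDK2 Ki than comparator c (Ki 0.032 µM)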
# T1 construct: purchased ProQinase 0050-0055-1
# Procedure, shortened: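 Kinase reaction buffer: 50 mM HEPES pH 7.5, 10 mM MgCl2, 2 mM TCEP, 0.05% BGG, 0.01% Brij 35, with 30 min compound–enzyme pre-incubation.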
# SKOV-3 (ATCC HTB-77) = test: SKOV-3 EdU incorporation cell proliferation assay (CDK4/6-dependent); format: cell-based; details: Homo sapiens, cellular assay, read-out: CDK4/6 SKOV-3 IC50
# Procedure, shortened: (§1)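 EdU incorporation (0.5 μM final, last 8 h) follows a 16 h compound exposure at 37 °C, 5% CO2 in RPMI plus 10% FBS, 0.5% DMSO. After fixation, imaging scores EdU-positive cells; a 4-parameter logistic fit of that fraction gives IC50.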
# [2] = molecular target: T2, Cyclin Dependent Kinase 1/Cyclin A2 (CDK1-cycA2) (Homo sapiens, UniProt P06493); test: CDK1-cycA2 TR-FRET (Lance) enzyme assay; format: biochemical; details: Table O, enzymatic assay
# T2 construct: purchased ProQinase 0134-0054-1
# Procedure, shortened: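 TR-FRET (Lance) detection of phospho-4E-BP1 with a europium-labelled antibody after EDTA quench (15 mM final); signal taken as acceptor/donor ratio. Enzyme and compound were pre-incubated 30 min in HEPES pH 7.5 buffer with MgCl2, TCEP, BGG and Brij 35. Ki derived by Morrison fit.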
# [3] = test system: OVISE (JCRB1043, CCNE1-amplified); test: OVISE EdU incorporation cell proliferation assay (CDK2-dependent); format: cell-based; details: for IC50: cellular assay, read-out: CDK2 OVISE IC50; for FS SKOV-3/OVISE / FS p-H3/OVISE: fold selectivity; for FS p-H3/OVISE: cellular p-H3 IC50 over OVISE IC50; for increased fold-selectivity SKOV-3/OVISE over Comparator C: (+) sign after FS SKOV-3/OVISE; for improvement in CDK2 OVISE cell potency over Comparator C: in brackets after OVISE IC50, Comparator C 5.5 μM
# Procedure, shortened: as §1
# [4] = molecular target: T3, Cyclin Dependent Kinase 4/Cyclin D3 (CDK4-cycD3) (Homo sapiens, UniProt P11802); test: CDK4-cycD3 TR-FRET (LANCE) enzyme assay; format: biochemical; details: Table O, enzymatic assay
# T3 construct: purchased Carna Biosciences 04-105
# Procedure, shortened: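 Compound dose responses pre-incubated 30 min with enzyme mix in 50 mM HEPES pH 7.5, 10 mM MgCl2, 2 mM TCEP, 0.05% BGG, 0.01% Brij 35. Reaction quenched with EDTA (15 mM final); Eu-anti-phospho-4E-BP1 TR-FRET detection, acceptor/donor ratio. Ki derived by Morrison equation.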
# HCT116 cells = test: p-H3 HCT-116 mitotic release cell proliferation assay (cellular CDK1); format: cell-based; details: Homo sapiens, HCT-116; Table O, cellular assay; read-out: CDK1 p-H3 IC50
# Description: Inhibition of cellular CDK1 determined by release of cells from nocodazole-induced mitotic arrest, as measured by decrease in phospho-Histone H3. Histone H3 (Ser 10) level is detected in cell lysates by producing a Fluorescence Resonance Energy Transfer (FRET) signal between two antibodies, Phospho-Histone H3 Cryptate (acting as the donor) and Phospho-Histone H3 d2 (acting as the acceptor).
# Plates are allowed to rest overnight at 37° C./5% CO2. The following morning, nocodazole is diluted in complete medium, and 5 μL is added to each test well and positive control well for a final concentration of 500 nM. Plates are then incubated for 16 hours at 37° C./5% CO2. […] 10 μL of diluted compound is then transferred to the cell plate (final DMSO concentration 0.1%). Cell plates are then incubated for 4 hours in 37° C. 5% CO2. A cell lysis buffer is prepared on ice using reagents from the Phospho-Histone H3 (Ser10) cellular kit (Cisbio-64HH3PEG). Supernatant is discarded from the cell plate and 80 μL of the supplemented cell lysis buffer (1:99 dilution of the Blocking Reagent and the 1× cell lysis buffer provided in the kit) is added to each of the experimental wells. The cell lysis reaction is allowed to proceed at room temperature while shaking vigorously for 30 minutes. The 384-well HTRF (Homogeneous Time Resolved Fluorescence) plate is prepared by adding 2 μL of each diluted antibody (Phospho-Histone H3 Cryptate antibody and Phospho-Histone H3 d2 antibody diluted 19:1 in a detection buffer) and 12 μL of the supplemented cell lysis buffer to each well in the HTRF plate. 4 μL of the cell lysate is added to the prepared HTRF plate which is then sealed and the reaction is allowed to proceed for a minimum of 2 hours at room temperature.
# [5] = Table O, enzymatic assay, read-out: CDK2 Ki
# [6] = Table O, enzymatic CDK1 Ki over CDK2 Ki
# [7] = Table O, enzymatic CDK4 Ki over CDK2 Ki
# [8] = Table Q, enzymatic assay, read-out: CDK2 Ki
# [9] = Table O, cellular SKOV-3 IC50 over OVISE IC50
# [10] = read-out: CDK2 activity / potency (enzymatic assay)
# T2 sequence (P06493 whole entry): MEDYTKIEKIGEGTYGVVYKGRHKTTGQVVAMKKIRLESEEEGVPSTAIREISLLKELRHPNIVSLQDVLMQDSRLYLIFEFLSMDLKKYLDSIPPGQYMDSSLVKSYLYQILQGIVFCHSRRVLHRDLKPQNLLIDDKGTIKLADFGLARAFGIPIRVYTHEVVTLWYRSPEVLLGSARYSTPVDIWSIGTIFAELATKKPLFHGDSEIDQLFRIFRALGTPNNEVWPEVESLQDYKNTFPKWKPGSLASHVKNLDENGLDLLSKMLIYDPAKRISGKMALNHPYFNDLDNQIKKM
# T2 sequence (P20248 whole entry partner): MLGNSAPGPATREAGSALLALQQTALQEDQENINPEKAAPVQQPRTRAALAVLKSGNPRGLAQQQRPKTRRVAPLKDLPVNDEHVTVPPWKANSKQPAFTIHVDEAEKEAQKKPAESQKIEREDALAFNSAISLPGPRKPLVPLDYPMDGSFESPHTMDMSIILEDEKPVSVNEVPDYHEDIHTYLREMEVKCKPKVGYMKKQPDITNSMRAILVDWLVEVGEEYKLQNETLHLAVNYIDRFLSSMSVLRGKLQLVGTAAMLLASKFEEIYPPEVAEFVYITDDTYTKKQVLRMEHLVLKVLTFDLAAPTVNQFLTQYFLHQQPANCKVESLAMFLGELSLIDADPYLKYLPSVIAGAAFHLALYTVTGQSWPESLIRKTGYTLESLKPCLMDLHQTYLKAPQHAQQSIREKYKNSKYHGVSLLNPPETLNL
# T3 sequence (P11802 whole entry): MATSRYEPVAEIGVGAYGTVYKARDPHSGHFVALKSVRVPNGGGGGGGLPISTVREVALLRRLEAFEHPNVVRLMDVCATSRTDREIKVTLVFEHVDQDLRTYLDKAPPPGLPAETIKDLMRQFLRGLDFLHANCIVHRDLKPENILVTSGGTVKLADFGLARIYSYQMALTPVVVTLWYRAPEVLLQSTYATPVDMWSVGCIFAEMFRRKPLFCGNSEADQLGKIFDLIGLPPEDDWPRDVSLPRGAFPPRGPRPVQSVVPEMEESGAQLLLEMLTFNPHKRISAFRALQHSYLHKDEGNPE
# T3 sequence (P30281 whole entry partner): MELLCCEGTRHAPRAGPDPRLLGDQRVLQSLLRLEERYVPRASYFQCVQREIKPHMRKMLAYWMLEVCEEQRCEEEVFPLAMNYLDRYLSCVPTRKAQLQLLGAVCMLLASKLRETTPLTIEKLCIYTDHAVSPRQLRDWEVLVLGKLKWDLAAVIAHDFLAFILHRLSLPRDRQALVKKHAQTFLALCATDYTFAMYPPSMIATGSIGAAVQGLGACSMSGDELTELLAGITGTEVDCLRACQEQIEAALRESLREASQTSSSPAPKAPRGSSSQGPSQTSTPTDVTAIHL
SMILES,improvement in potency against CDK2 (Ki) over Comparator C [1] [fold],"Ki [1, 5] [nM]","FS CDK1/CDK2 [1, 6]","FS CDK4/CDK2 [1, 7]",increased fold-selectivity CDK1/CDK2 over Comparator C ([1]; Table Q),increased fold-selectivity CDK4/CDK2 over Comparator C ([1]; Table Q),"Ki [1, 8] [nM]","FS CDK1/CDK2 ([1]; Table Q, enzymatic)","FS CDK4/CDK2 ([1]; Table Q, enzymatic)","IC50 (SKOV-3 (ATCC HTB-77); SK-OV-3, Table O) [µM]","IC50 (SKOV-3 (ATCC HTB-77); SK-OV-3, Table Q) [µM]",Ki [2] [nM],IC50 ([3]; Table O) [nM],"FS SKOV-3/OVISE [3, 9]",FS p-H3/OVISE ([3]; Table O),increased fold-selectivity SKOV-3/OVISE over Comparator C ([3]; Table Q),"FS SKOV-3/OVISE ([3]; Table Q, cellular)",improvement in CDK2 OVISE cell potency over Comparator C ([3]; Table Q) [fold],Ki [4] [nM],IC50 (HCT116 cells) [nM],also measured
"CC(C)NC(=O)O[C@@H]1CC[C@H](c2cc(Nc3cncnc3)n[nH]2)C1 [Example 2B, (1R,3S)-3-(3-(pyrimidin-5-ylamino)-1H-pyrazol-5-yl)cyclopentyl isopropylcarbamate]",9,3.4,47,120,(+) (The (+) sign in Table Q signifies desirable increased fold-selectivity of the exemplary compounds over Comparator C),(+) (The (+) sign in Table Q signifies desirable increased fold-selectivity of the exemplary compounds over Comparator C),3.4,47,120,> 20,> 20,160,230,>70,1.1,(+) (The (+) sign in Table Q signifies desirable increased fold-selectivity of the exemplary compounds over Comparator C),> 70,24,390,2900,–
"CC(C)NC(=O)O[C@@H]1CC[C@H](c2cc(Nc3ccncn3)n[nH]2)C1 [Example 2C, (1R,3S)-3-(3-(pyrimidin-4-ylamino)-1H-pyrazol-5-yl)cyclopentyl isopropylcarbamate]",32,1.1,39,86,(+) (The (+) sign in Table Q signifies desirable increased fold-selectivity of the exemplary compounds over Comparator C),(+) (The (+) sign in Table Q signifies desirable increased fold-selectivity of the exemplary compounds over Comparator C),1.1,39,86,4.1,4.1,43,110,37,0.47,(+) (The (+) sign in Table Q signifies desirable increased fold-selectivity of the exemplary compounds over Comparator C),37,50,95,52,–
"CC(C)NC(=O)O[C@@H]1CC[C@H](c2cc(Nc3cnccn3)n[nH]2)C1 [Example 2E, (1R,3S)-3-(3-(pyrazin-2-ylamino)-1H-pyrazol-5-yl)cyclopentyl isopropylcarbamate]",246,0.13,65,57,(+) (The (+) sign in Table Q signifies desirable increased fold-selectivity of the exemplary compounds over Comparator C),(+) (The (+) sign in Table Q signifies desirable increased fold-selectivity of the exemplary compounds over Comparator C),0.13,65,57,0.13,0.13,8.4,16,8.1,0.88,(+) (The (+) sign in Table Q signifies desirable increased fold-selectivity of the exemplary compounds over Comparator C),8.1,344,7.4,14,"Ki [1, 10]: ≤ 1 nM"
"CC(C)NC(=O)O[C@@H]1CC[C@H](c2cc(Nc3ccc(-n4ccnc4)cn3)n[nH]2)C1 [Example 2EE, (1R,3S)-3-(3-((5-(1H-imidazol-1-yl)pyridin-2-yl)amino)-1H-pyrazol-5-yl)cyclopentyl isopropylcarbamate]",10,3.2,91,59,(+) (The (+) sign in Table Q signifies desirable increased fold-selectivity of the exemplary compounds over Comparator C),(+) (The (+) sign in Table Q signifies desirable increased fold-selectivity of the exemplary compounds over Comparator C),3.2,91,59,9.7,9.7,290,340,29,2.6,(+) (The (+) sign in Table Q signifies desirable increased fold-selectivity of the exemplary compounds over Comparator C),29,16,190,900,–
"COc1nccc(Nc2cc([C@H]3CC[C@@H](OC(=O)NC(C)C)C3)[nH]n2)n1 [Example 2F, (1R,3S)-3-(3-((2-methoxypyrimidin-4-yl)amino)-1H-pyrazol-5-yl)cyclopenty1 isopropylcarbamate]",78,0.41,21,270,–,(+) (The (+) sign in Table Q signifies desirable increased fold-selectivity of the exemplary compounds over Comparator C),0.41,21,270,3.5,3.5,11,65,58,1.3,(+) (The (+) sign in Table Q signifies desirable increased fold-selectivity of the exemplary compounds over Comparator C),58,84.6,190,76,"Ki [1, 10]: ≤ 1 nM"
